Publication PMC7181660, “A novel specific PERK activator reduces toxicity and extends survival in Huntington's disease models” (Scientific Reports, 2020)

Columns and labels:
Experiment in all cases: biochemical
Format in all cases: biochemical
[1] = target: panel of 391 kinases (Homo sapiens, UniProt O00311); conditions: CDC7/DBF4, MK-28 1 µM, ATP 1 µM
[2] = target: panel of 391 kinases (Homo sapiens, UniProt O00506); conditions: STK25/YSK1, MK-28 1 µM, ATP 1 µM
[3] = target: panel of 391 kinases (Homo sapiens, UniProt O14733); conditions: MKK7, MK-28 1 µM, ATP 1 µM
[4] = target: panel of 391 kinases (Homo sapiens, UniProt O94804); conditions: LOK/STK10, MK-28 1 µM, ATP 1 µM
[5] = target: panel of 391 kinases (Homo sapiens, UniProt P07947); conditions: YES/YES1, MK-28 1 µM, ATP 1 µM
[6] = target: panel of 391 kinases (Homo sapiens, UniProt P08069); conditions: IGF1R, MK-28 1 µM, ATP 1 µM
[7] = target: panel of 391 kinases (Homo sapiens, UniProt P51957); conditions: NEK4, MK-28 1 µM, ATP 1 µM
[8] = target: panel of 391 kinases (Homo sapiens, UniProt P78527); conditions: kinase DNA-PK, compound at 1 µM, single dose in duplicates, 1 µM ATP
[9] = target: panel of 391 kinases (Homo sapiens, UniProt Q13470); conditions: TNK1, MK-28 1 µM, ATP 1 µM
[10] = target: panel of 391 kinases (Homo sapiens, UniProt Q13882); conditions: BRK, MK-28 1 µM, ATP 1 µM
[11] = target: panel of 391 kinases (Homo sapiens, UniProt Q14164); conditions: IKKe/IKBKE, MK-28 1 µM, ATP 1 µM
[12] = target: panel of 391 kinases (Homo sapiens, UniProt Q14289); conditions: PYK2, MK-28 1 µM, ATP 1 µM
[13] = target: panel of 391 kinases (Homo sapiens, UniProt Q32MK0); conditions: MYLK3, MK-28 1 µM, ATP 1 µM
[14] = target: panel of 391 kinases (Homo sapiens, UniProt Q5TCY1); conditions: TTBK1, MK-28 1 µM, ATP 1 µM
[15] = target: panel of 391 kinases (Homo sapiens, UniProt Q6DT37); conditions: DMPK2, MK-28 1 µM, ATP 1 µM
[16] = target: panel of 391 kinases (Homo sapiens, UniProt Q6P2M8); conditions: CAMK1b, MK-28 1 µM, ATP 1 µM
[17] = target: panel of 391 kinases (Homo sapiens, UniProt Q6PHR2); conditions: ULK3, MK-28 1 µM, ATP 1 µM
[18] = target: panel of 391 kinases (Homo sapiens, UniProt Q86SG6); conditions: NEK8, MK-28 1 µM, ATP 1 µM
[19] = target: panel of 391 kinases (Homo sapiens, UniProt Q86Y07); conditions: VRK2, MK-28 1 µM, ATP 1 µM
[20] = target: panel of 391 kinases (Homo sapiens, UniProt Q8IVT5); conditions: KSR1, MK-28 1 µM, ATP 1 µM
[21] = target: panel of 391 kinases (Homo sapiens, UniProt Q8TF76); conditions: Haspin, MK-28 1 µM, ATP 1 µM
[22] = target: panel of 391 kinases (Homo sapiens, UniProt Q96GD4); conditions: Aurora B, MK-28 1 µM, ATP 1 µM
[23] = target: panel of 391 kinases (Homo sapiens, UniProt Q99683); conditions: ASK1/MAP3K5, MK-28 1 µM, ATP 1 µM
[24] = target: panel of 391 kinases (Homo sapiens, UniProt Q9BWU1); conditions: CDK19/cyclin C, MK-28 1 µM, ATP 1 µM
[25] = target: panel of 391 kinases (Homo sapiens, UniProt Q9BYP7); conditions: WNK3, MK-28 1 µM, ATP 1 µM
[26] = target: panel of 391 kinases (Homo sapiens, UniProt Q9HC98); conditions: NEK6, MK-28 1 µM, ATP 1 µM
[27] = target: panel of 391 kinases (Homo sapiens, UniProt Q9Y463); conditions: DYRK1B, MK-28 1 µM, ATP 1 µM
[28] = read-out: % Enzyme Activity (relative to DMSO controls)

CN(/N=C\c1ccc(O)c(O)c1)c1nc(-c2ccccc2)cc(-c2ccccc2)n1 [MK-28] was tested, and the “% Enzyme Activity (relative to DMSO controls)” value [1] was 105.60%, the remaining activity at 1 µM [1, 28] was 113% and the “% Enzyme Activity (relative to DMSO controls)” value [2] was 93.29%. The remaining activity at 1 µM [2, 28] was 95.7%, the “% Enzyme Activity (relative to DMSO controls)” value [3] was 95.27% and the remaining activity at 1 µM [3, 28] was 96.9%. For the same molecule, the “% Enzyme Activity (relative to DMSO controls)” value [4] was 100.78%, the remaining activity at 1 µM [4, 28] was 101% and the “% Enzyme Activity (relative to DMSO controls)” value [5] was 96.24%. For the same molecule, the remaining activity at 1 µM [5, 28] was 97.6%, the “% Enzyme Activity (relative to DMSO controls)” value [6] was 98.39% and the remaining activity at 1 µM [6, 28] was 100%. For the same molecule, the “% Enzyme Activity (relative to DMSO controls)” value [7] was 89.27%, the remaining activity at 1 µM [7, 28] was 91.6% and the “% Enzyme Activity (relative to DMSO controls)” value [8] was 102.10%. The remaining activity at 1 µM [8, 28] was 103%, the “% Enzyme Activity (relative to DMSO controls)” value [9] was 104.14% and the remaining activity at 1 µM [9, 28] was 108%. The “% Enzyme Activity (relative to DMSO controls)” value [10] was 102.30%, the remaining activity at 1 µM [10, 28] was 104% and the “% Enzyme Activity (relative to DMSO controls)” value [11] was 93.45%. The remaining activity at 1 µM [11, 28] was 96%, the “% Enzyme Activity (relative to DMSO controls)” value [12] was 101.51% and the remaining activity at 1 µM [12, 28] was 103%. The “% Enzyme Activity (relative to DMSO controls)” value [13] was 104.33%, the remaining activity at 1 µM [13, 28] was 106% and the “% Enzyme Activity (relative to DMSO controls)” value [14] was 93.65%. For the same molecule, the remaining activity at 1 µM [14, 28] was 99%, the “% Enzyme Activity (relative to DMSO controls)” value [15] was 101.16% and the remaining activity at 1 µM [15, 28] was 106%. For the same molecule, the “% Enzyme Activity (relative to DMSO controls)” value [16] was 94.89%, the remaining activity at 1 µM [16, 28] was 96.9% and the “% Enzyme Activity (relative to DMSO controls)” value [17] was 97.75%. For the same molecule, the remaining activity at 1 µM [17, 28] was 98.7%, the “% Enzyme Activity (relative to DMSO controls)” value [18] was 101.46% and the remaining activity at 1 µM [18, 28] was 101%. For the same molecule, the “% Enzyme Activity (relative to DMSO controls)” value [19] was 96.44%, the remaining activity at 1 µM [19, 28] was 97% and the “% Enzyme Activity (relative to DMSO controls)” value [20] was 97.81%. The remaining activity at 1 µM [20, 28] was 99.7%, the “% Enzyme Activity (relative to DMSO controls)” value [21] was 102.02% and the remaining activity at 1 µM [21, 28] was 116%. For the same molecule, the “% Enzyme Activity (relative to DMSO controls)” value [22] was 106.50%, the remaining activity at 1 µM [22, 28] was 107% and the “% Enzyme Activity (relative to DMSO controls)” value [23] was 97.76%. For the same molecule, the remaining activity at 1 µM [23, 28] was 100%, the “% Enzyme Activity (relative to DMSO controls)” value [24] was 105.26% and the remaining activity at 1 µM [24, 28] was 108%. The “% Enzyme Activity (relative to DMSO controls)” value [25] was 104.23%, the remaining activity at 1 µM [25, 28] was 105% and the “% Enzyme Activity (relative to DMSO controls)” value [26] was 99.56%. The remaining activity at 1 µM [26, 28] was 100%, the “% Enzyme Activity (relative to DMSO controls)” value [27] was 88.09% and the remaining activity at 1 µM [27, 28] was 89.9%.
